Activity calls are given as the source filed them. The rule behind the calls is not given here.
Tests used:
PC-3 [1] = test: Induction of apoptosis in PC3 measured as percentage of early apoptotic cells by biparametric PI/Annexin V assay at 5.1 uM after 24 hrs; format: functional, Homo sapiens
PC-3 [2] = test: Induction of apoptosis in PC3 measured as percentage of late apoptotic cells by biparametric PI/Annexin V assay at 5.1 uM after 8 hrs; format: functional, Homo sapiens
PC-3 [3] = test: Induction of apoptosis in PC3 measured as percentage of late apoptotic cells by biparametric PI/Annexin V assay at 5.1 uM after 48 hrs; format: functional, Homo sapiens
PC-3 [4] = test: Induction of apoptosis in PC3 measured as percentage of necrotic cells by biparametric PI/Annexin V assay at 5.1 uM after 8 hrs; format: functional, Homo sapiens
[5] = Ratio of K(app) for [A-T] to [G-C]
PC-3 [6] = test: Induction of apoptosis in PC3 cells measured as percentage of living cells by biparametric PI/Annexin V assay at 5.1 uM after 8 hrs; format: functional, Homo sapiens
PC-3 [7] = test: Induction of apoptosis in PC3 measured as percentage of necrotic cells by biparametric PI/Annexin V assay at 5.1 uM after 4 hrs; format: functional, Homo sapiens
PC-3 [8] = test: Cytotoxicity against PC3 cells by SRB assay after 48 hrs; format: functional; settings: Homo sapiens, PC-3, 48 h
PC-3 [9] = test: Induction of apoptosis in PC3 cells measured as percentage of living cells by biparametric PI/Annexin V assay at 5.1 uM after 24 hrs; format: functional, Homo sapiens
PC-3 [10] = test: Induction of apoptosis in PC3 measured as percentage of early apoptotic cells by biparametric PI/Annexin V assay at 5.1 uM after 8 hrs; format: functional, Homo sapiens
PC-3 [11] = test: Induction of apoptosis in PC3 measured as percentage of late apoptotic cells by biparametric PI/Annexin V assay at 5.1 uM after 4 hrs; format: functional, Homo sapiens
PC-3 [12] = test: Induction of apoptosis in PC3 measured as percentage of early apoptotic cells by biparametric PI/Annexin V assay at 5.1 uM after 4 hrs; format: functional, Homo sapiens
PC-3 [13] = test: Induction of apoptosis in PC3 measured as percentage of necrotic cells by biparametric PI/Annexin V assay at 5.1 uM after 24 hrs; format: functional, Homo sapiens
PC-3 [14] = test: Induction of apoptosis in PC3 measured as percentage of late apoptotic cells by biparametric PI/Annexin V assay at 5.1 uM after 24 hrs; format: functional, Homo sapiens
PC-3 [15] = test: Induction of apoptosis in PC3 cells measured as percentage of living cells by biparametric PI/Annexin V assay at 5.1 uM after 4 hrs; format: functional, Homo sapiens
PC-3 [16] = test: Induction of apoptosis in PC3 measured as percentage of early apoptotic cells by biparametric PI/Annexin V assay at 5.1 uM after 48 hrs; format: functional, Homo sapiens
PC-3 [17] = test: Reduction in PC3 cell viability after 48 hrs by FDA flow cytometer assay; format: functional, cell-based; settings: Homo sapiens
PC-3 [18] = test: Induction of apoptosis in PC3 cells by DNA fragmentation assay; format: functional, cell-based; settings: Homo sapiens
PC-3 [19] = test: Induction of apoptosis in PC3 cells measured as percentage of living cells by biparametric PI/Annexin V assay at 5.1 uM after 48 hrs; format: functional, Homo sapiens
PC-3 [20] = test: Induction of apoptosis in PC3 measured as percentage of necrotic cells by biparametric PI/Annexin V assay at 5.1 uM after 48 hrs; format: functional, Homo sapiens
PC-3 [21] = test: Induction of apoptosis in PC3 measured as percentage of late apoptotic cells by biparametric PI/Annexin V assay at 3.6 uM after 24 hrs; format: functional, Homo sapiens
PC-3 [22] = test: Induction of apoptosis in PC3 measured as percentage of early apoptotic cells by biparametric PI/Annexin V assay at 3.6 uM after 4 hrs; format: functional, Homo sapiens
PC-3 [23] = test: Induction of apoptosis in PC3 measured as percentage of late apoptotic cells by biparametric PI/Annexin V assay at 3.6 uM after 4 hrs; format: functional, Homo sapiens
PC-3 [24] = test: Induction of apoptosis in PC3 measured as percentage of necrotic cells by biparametric PI/Annexin V assay at 3.6 uM after 48 hrs; format: functional, Homo sapiens
PC-3 [25] = test: Induction of apoptosis in PC3 measured as percentage of necrotic cells by biparametric PI/Annexin V assay at 3.6 uM after 24 hrs; format: functional, Homo sapiens
PC-3 [26] = test: Induction of apoptosis in PC3 cells measured as percentage of living cells by biparametric PI/Annexin V assay at 3.6 uM after 24 hrs; format: functional, Homo sapiens
PC-3 [27] = test: Induction of apoptosis in PC3 cells measured as percentage of living cells by biparametric PI/Annexin V assay at 3.6 uM after 4 hrs; format: functional, Homo sapiens
PC-3 [28] = test: Induction of necrosis in PC3 cells by DNA fragmentation assay; format: functional, cell-based; settings: Homo sapiens
PC-3 [29] = test: Induction of apoptosis in PC3 measured as percentage of necrotic cells by biparametric PI/Annexin V assay at 3.6 uM after 4 hrs; format: functional, Homo sapiens
PC-3 [30] = test: Induction of apoptosis in PC3 measured as percentage of early apoptotic cells by biparametric PI/Annexin V assay at 3.6 uM after 8 hrs; format: functional, Homo sapiens
PC-3 [31] = test: Induction of apoptosis in PC3 cells measured as percentage of living cells by biparametric PI/Annexin V assay at 3.6 uM after 8 hrs; format: functional, Homo sapiens
PC-3 [32] = test: Induction of apoptosis in PC3 measured as percentage of early apoptotic cells by biparametric PI/Annexin V assay at 3.6 uM after 48 hrs; format: functional, Homo sapiens
PC-3 [33] = test: Induction of apoptosis in PC3 measured as percentage of late apoptotic cells by biparametric PI/Annexin V assay at 3.6 uM after 8 hrs; format: functional, Homo sapiens
PC-3 [34] = test: Induction of apoptosis in PC3 measured as percentage of necrotic cells by biparametric PI/Annexin V assay at 3.6 uM after 8 hrs; format: functional, Homo sapiens
PC-3 [35] = test: Induction of apoptosis in PC3 measured as percentage of early apoptotic cells by biparametric PI/Annexin V assay at 3.6 uM after 24 hrs; format: functional, Homo sapiens
PC-3 [36] = test: Induction of apoptosis in PC3 measured as percentage of late apoptotic cells by biparametric PI/Annexin V assay at 3.6 uM after 48 hrs; format: functional, Homo sapiens
PC-3 [37] = test: Induction of apoptosis in PC3 cells measured as percentage of living cells by biparametric PI/Annexin V assay at 3.6 uM after 48 hrs; format: functional, Homo sapiens

Cc1ccc2c(c1)c(=O)c1c(NCCCN(C)CCCN3C(=O)c4cccc5cccc(c45)C3=O)ccc3nnn2c31.Cl
Activity (PC-3 [1]): 39% | Activity (PC-3 [2]): 1.9% | Activity (PC-3 [3]): 15.7% | Activity (PC-3 [4]): 42% | Selectivity ratio [5]: 1.7 | Activity (PC-3 [6]): 54.8% | Activity (PC-3 [7]): 28.6% | GI50 (PC-3 [8]): 17 nM | LC50 (concentration for 50% net cell kill) (PC-3 [8]): 5100 nM | TGI (PC-3 [8]): 1600 nM | Activity (PC-3 [9]): 11.9% | Activity (PC-3 [10]): 1.3% | Activity (PC-3 [11]): 1.1% | Activity (PC-3 [12]): 0.9% | Activity (PC-3 [13]): 33% | Activity (PC-3 [14]): 16.1% | Activity (PC-3 [15]): 69.4% | Activity (PC-3 [16]): 57% | Activity (PC-3 [17]): Time-dependent effect | Activity (PC-3 [18]): Active | Activity (PC-3 [19]): 1% | Activity (PC-3 [20]): 27.3%

COc1ccc2nc3c(C(=O)NCCN(C)C)ccc(NCCCN(C)CCCN4C(=O)c5cccc6cccc(c56)C4=O)c3c(O)c2c1.Cl
Activity (PC-3 [21]): 16.3% | Activity (PC-3 [22]): 1.3% | Activity (PC-3 [23]): 1.2% | Activity (PC-3 [24]): 24.4% | Activity (PC-3 [25]): 22.3% | Activity (PC-3 [26]): 35.5% | Selectivity ratio [5]: 30 | Activity (PC-3 [27]): 81.1% | GI50 (PC-3 [8]): 0.16 nM | LC50 (concentration for 50% net cell kill) (PC-3 [8]): 3600 nM | TGI (PC-3 [8]): 14 nM | Activity (PC-3 [28]): Active | Activity (PC-3 [29]): 16.4% | Activity (PC-3 [30]): 1.5% | Activity (PC-3 [31]): 62.7% | Activity (PC-3 [32]): 59% | Activity (PC-3 [33]): 2.9% | Activity (PC-3 [34]): 32.9% | Activity (PC-3 [35]): 25.9% | Activity (PC-3 [17]): Time-dependent effect | Activity (PC-3 [18]): Active | Activity (PC-3 [36]): 14.3% | Activity (PC-3 [37]): 2.3%
